Molecular target: Programmed cell death 1 ligand 1 (Homo sapiens, UniProt Q9NZQ7)
Test: Enzyme-Linked Immunosorbent Assay - ELISA: 96 Well plates were coated with 1 μg/mL of human PD-L1 (obtained from R&D) in PBS overnight at 4° C. The wells were then blocked with 2% BSA in PBS (W/V) with 0.05% TWEEN-20 for 1 hour at 37° C. The plates were washed 3 times with PBS/0.05% TWEEN-20 and the compounds were serial diluted (1:5) in dilution medium and added to the ELISA plates. Human PD-1 and biotin 0.3 μg/mL (ACRO Biosystems) were added and incubated for 1 hour at 37° C. then washed 3 times with PBS/0.05% TWEEN-20. A second block was performed with 2% BSA in PBS (W/V)/0.05% TWEEN-20 for 10 min at 37° C. and was washed 3 times with PBS/0.05% TWEEN-20. Streptavidin-HRP was added for 1 hour at 37° C. then washed 3 times with PBS/0.05% TWEEN-20. TMB substrate was added and reacted for 20 min at 37° C. A stop solution (2 N aqueous H2SO4) was added. The absorbance was read at 450 nm using a micro-plate spectrophotometer.

Sequence of Programmed cell death 1 ligand 1 (Q9NZQ7 whole entry): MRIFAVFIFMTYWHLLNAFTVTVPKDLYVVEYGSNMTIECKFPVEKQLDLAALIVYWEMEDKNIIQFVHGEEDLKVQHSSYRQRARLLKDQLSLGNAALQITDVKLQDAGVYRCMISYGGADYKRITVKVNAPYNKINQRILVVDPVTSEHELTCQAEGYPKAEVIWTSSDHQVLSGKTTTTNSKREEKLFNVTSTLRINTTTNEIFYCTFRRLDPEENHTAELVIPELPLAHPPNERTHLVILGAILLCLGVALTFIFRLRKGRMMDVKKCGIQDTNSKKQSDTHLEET

Cc1c(COc2cc3c(cc2Cl)CN[C@H](CO)CCCCNC(=O)c2cncc(c2)CO3)cccc1-c1cccc(OCCCN2CCC(O)CC2)c1C
IC50: < 100 nM

Cc1c(COc2cc3c(cc2Cl)CN[C@@H](C(=O)O)CCCCNC(=O)c2cncc(c2)CO3)cccc1-c1ccccc1
IC50: < 100 nM

Cc1c(COc2cc3c(cc2Cl)CN[C@H](C(=O)O)CCCCCCNC(=O)c2cncc(c2)CO3)cccc1-c1cccc(OCCCN2CCC(O)CC2)c1C
IC50: < 100 nM

Cc1c(COc2cc3c(cc2Cl)CN[C@H](C(=O)O)CCCCNC(=O)c2cc(C#N)cc(c2)CO3)cccc1-c1cccc(OCCCN2CCC(O)CC2)c1C
IC50: < 100 nM

Cc1c(COc2cc3c(cc2Cl)CN[C@H](C(=O)O)CCCCNC(=O)c2cc(C#N)cc(c2)CO3)cccc1-c1cccc(OCCCN2CC[C@@H](O)C2)c1C
IC50: < 100 nM

Cc1c(COc2cc3c(cc2Cl)CN[C@H](C(=O)O)CCCCNC(=O)c2cncc(c2)CO3)cccc1-c1cccc(OCCCN2CC[C@@H](O)C2)c1C
IC50: < 100 nM
